In PubChem BioAssay AID1919004 (Molecular Pharmacology Branch, DTP, NCI, 2023):
Where “and” joins values, the source holds several entries; their conditions need not be identical. Equal values may be shown once. Values belong to the molecule of their own block, whether it stands above or below them.

Tested on: 883617-216-R-J1-PDC complex spheroids, growth, % test/control
Experiment: Anticancer human tumor 883617-216-R-J1-PDC patient-derived bladder carcinoma cell line growth inhibition [AhR]
Conditions: for viability, T/C: stronger effect = lower value
Description: Multicellular complex tumor spheroid response to aryl hydrocarbon receptor antagonists in combination with a variety of drugs and investigational agents in selected tumor cell lines
The current study was undertaken to assess response to aryl hydrocarbon receptor antagonists in combination with standard-of-care drugs and investigational agents in solid tumor complex spheroid models. Complex spheroids include a stromal component modeled by human endothelial cells (HUVEC) and fibroblasts modeled by human mesenchymal stem cells (MSCs). The concentration ranges selected for each drug and investigational agent were based upon clinically achievable concentrations if the clinical Cmax of the agent was known.
Compounds. The drugs and investigational agents: BAY 2416964 (NSC825713), GNF351 (NSC835774), CH-223191 (NSC835775), CPI-455 (NSC825282), aza-TdCyd (NSC777586), decitabine (NSC127716), belinostat (NSC758774), entinostat (NSC756642), pevonedistat (NSC761192), tazemetostat (NSC777109), talazoparib (NSC765396), olaparib (NSC753686), selinexor (NSC780203), nedisertib (M3814, NSC802822), bortezomib (NSC756655), venetoclax (NSC766270), doxorubicin (NSC123127), elimusertib (BAY189344, NSC800525), ceralasertib (AZD6738, NSC777638), TAK-243 (NSC785004), alisertib (NSC759677), etoposide (NSC141540), topotecan (NSC609699), eribulin (NSC707389), gemcitabine (NSC613327), carboplatin (NSC241240), cisplatin (NSC119875), and SN-38 (NSC673596) were obtained from the National Cancer Institute (NCI) Developmental Therapeutics Program Chemical Repository (32). The FDA-approved anticancer drug set is available from the Developmental Therapeutics Program at https://dtp.cancer.gov/organization/dscb/obtaining/available plates.htm. […] The stock solutions were prepared in dimethyl sulfoxide (DMSO, Sigma-Aldrich, St. Louis, MO, cat. D2650), except for the platinum compounds which were prepared in saline (Quality Biological, Gaithersburg, MD, cat. 114-055-101), at 800-fold the tested concentration and stored at -70 degrees C prior to their use. All drugs and investigational agents were tested over a range starting from a high concentration at or near the clinical Cmax and decreasing in half-log increments. If the clinical Cmax for an agent had not been determined, the highest concentration tested was 10 microM (Table 1).
Cell Culture. All cells were maintained in an incubator at 37 degrees C and 5% CO2 with 95% humidity. The PDC lines were cultured according to standard operating procedures established by the NCI PDMR (https://pdmr.cancer.gov). Briefly, all PDCs were thawed and cultured in Matrigel-coated flasks prepared with a working solution of 1X Ham's F-12 nutrient mix, without supplementation (Invitrogen, Waltham, MA, cat. 11765054), 100 U/mL penicillin-streptomycin (Invitrogen, cat. 15140122), and 2.5% Matrigel (Corning Inc., Corning, NY, cat. 354248) for the first three passages. All PDCs were cultured in complete DMEM/F-12 media containing advanced DMEM/F-12 (Invitrogen, cat. 12634028), 4.9% defined fetal bovine serum, heat inactivated (HyClone Laboratories Inc., Logan, UT, cat. SH30070.03HI), 389 ng/mL hydrocortisone (Sigma-Aldrich, cat. H4001), 9.7 ng/mL human EGF recombinant protein (Invitrogen, cat. PHG0313), 23.4 microg/mL adenine (Sigma-Aldrich, cat. A2786), 97.3 U/mL penicillin-streptomycin (Invitrogen, cat. 15140122), 1.9 mM L-glutamine (Invitrogen, cat. 25030081), and 9.7 microM Y-27632 dihydrochloride (Tocris Bioscience, Bristol, United Kingdom, cat. 1254). The PDCs were cultured in complete DMEM/F12 media without 10 microM Y-27632 dihydrochloride for at least two passages prior to the screen. The established cell lines NCI-H1341 and […] were cultured in DMEM/F-12, HEPES (Invitrogen, cat. 11330032), 5% defined fetal bovine serum (HyClone Laboratories Inc., cat. SH30070.03), ITS premix universal culture supplement [insulin (5 microg/mL), transferrin (5 microg/mL), and selenious acid (5 ng/mL)] […]

[1] = curve of first compound, second compound 0.1 µM
[2] = curve of first compound, second compound 0.316 µM
[3] = curve of first compound, second compound 1 µM
[4] = curve of first compound, second compound 3.16 µM
[5] = curve of first compound, second compound 10 µM
[6] = second compound 0.1 µM, first compound 0.0316 µM
[7] = second compound 0.1 µM, first compound 0.1 µM
[8] = second compound 0.1 µM, first compound 0.316 µM
[9] = second compound 0.1 µM, first compound 1 µM
[10] = second compound 0.1 µM, first compound 3.16 µM
[11] = second compound 0.1 µM, first compound 10 µM
[12] = second compound 0.316 µM, first compound 0.0316 µM
[13] = second compound 0.316 µM, first compound 0.1 µM
[14] = second compound 0.316 µM, first compound 0.316 µM
[15] = second compound 0.316 µM, first compound 1 µM
[16] = second compound 0.316 µM, first compound 3.16 µM
[17] = second compound 0.316 µM, first compound 10 µM
[18] = second compound 1 µM, first compound 0.0316 µM
[19] = second compound 1 µM, first compound 0.1 µM
[20] = second compound 1 µM, first compound 0.316 µM
[21] = second compound 1 µM, first compound 1 µM
[22] = second compound 1 µM, first compound 3.16 µM
[23] = second compound 1 µM, first compound 10 µM
[24] = second compound 3.16 µM, first compound 0.0316 µM
[25] = second compound 3.16 µM, first compound 0.1 µM
[26] = second compound 3.16 µM, first compound 0.316 µM
[27] = second compound 3.16 µM, first compound 1 µM
[28] = second compound 3.16 µM, first compound 3.16 µM
[29] = second compound 3.16 µM, first compound 10 µM
[30] = second compound 10 µM, first compound 0.0316 µM
[31] = second compound 10 µM, first compound 0.1 µM
[32] = second compound 10 µM, first compound 0.316 µM
[33] = second compound 10 µM, first compound 1 µM
[34] = second compound 10 µM, first compound 3.16 µM
[35] = second compound 10 µM, first compound 10 µM
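Further: exposure lasted 7 days after dosing on day 3 of spheroid growth.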

Compound: O=C(c1cc(Cc2n[nH]c(=O)c3ccccc23)ccc1F)N1CCN(C(=O)C2CC2)CC1 + Cc1ccccc1N=Nc1ccc(NC(=O)c2ccnn2C)c(C)c1
- IC50 [1]: > 10 µM
- IC50 [2]: > 10 µM
- IC50 [3]: > 10 µM
- IC50 [4]: > 10 µM
- IC50 [5]: > 10 µM
- viability, T/C [6]: 88.7%
- viability, T/C [7]: 90.9%
- viability, T/C [8]: 98.7%
- viability, T/C [9]: 84.3%
- viability, T/C [10]: 84.1%
- viability, T/C [11]: 81%
- viability, T/C [12]: 84.7%
- viability, T/C [13]: 82.1%
- viability, T/C [14]: 76.5%
- viability, T/C [15]: 86.5%
- viability, T/C [16]: 74.8%
- viability, T/C [17]: 85.4%
- viability, T/C [18]: 89%
- viability, T/C [19]: 83.2%
- viability, T/C [20]: 87.2%
- viability, T/C [21]: 80.7%
- viability, T/C [22]: 80.7%
- viability, T/C [23]: 71%
- viability, T/C [24]: 82.8%
- viability, T/C [25]: 85.6%
- viability, T/C [26]: 86.8%
- viability, T/C [27]: 75.2%
- viability, T/C [28]: 71.3%
- viability, T/C [29]: 73.9%
- viability, T/C [30]: 82.3%
- viability, T/C [31]: 76.8%
- viability, T/C [32]: 78.9%
- viability, T/C [33]: 70.6%
- viability, T/C [34]: 65.9%
- viability, T/C [35]: 64.4%

Compound: CC(C)c1c(-c2ccccc2)nc2c(C#N)c[nH]n2c1=O + Cc1cncc(-c2nc(NCCc3c[nH]c4ccccc34)c3ncn(C(C)C)c3n2)c1
- IC50 [1]: > 10 µM
- IC50 [2]: > 10 µM
- IC50 [3]: > 10 µM
- IC50 [4]: > 10 µM
- IC50 [5]: 0.0681 µM
- viability, T/C [6]: 98.7%
- viability, T/C [7]: 93.8%
- viability, T/C [8]: 99.3%
- viability, T/C [9]: 99.7%
- viability, T/C [10]: 92.6%
- viability, T/C [11]: 91.7%
- viability, T/C [12]: 107%
- viability, T/C [13]: 91.8%
- viability, T/C [14]: 93%
- viability, T/C [15]: 97.6%
- viability, T/C [16]: 103%
- viability, T/C [17]: 94%
- viability, T/C [18]: 96.6%
- viability, T/C [19]: 114%
- viability, T/C [20]: 107%
- viability, T/C [21]: 104%
- viability, T/C [22]: 102%
- viability, T/C [23]: 111%
- viability, T/C [24]: 105%
- viability, T/C [25]: 109%
- viability, T/C [26]: 115%
- viability, T/C [27]: 105%
- viability, T/C [28]: 111%
- viability, T/C [29]: 121%
- viability, T/C [30]: 53.4%
- viability, T/C [31]: 48.5%
- viability, T/C [32]: 48.4%
- viability, T/C [33]: 41.7%
- viability, T/C [34]: 43.5%
- viability, T/C [35]: 55.4%

Continued, in another order:

- IC50 (curve of compound): > 0.3 µM
Compound: Nc1ncn(C2CC(O)C(CO)S2)c(=O)n1 (configuration not stated)
- viability, T/C (compound 0.000949 µM): 101% and 103% and 61.3%
- viability, T/C (compound 0.003 µM): 114% and 103% and 79.2%
- viability, T/C (compound 0.00949 µM): 93.2% and 103% and 71.2%
- viability, T/C (compound 0.03 µM): 97.5% and 101% and 64%
- viability, T/C (compound 0.0949 µM): 88.2% and 99% and 72.8%
- viability, T/C (compound 0.3 µM): 78.9% and 82.5% and 87.1%

- IC50 [1]: 2.5 µM
- IC50 [2]: 2.35 µM
- IC50 [3]: 2.48 µM
- IC50 [4]: 2.48 µM
- IC50 [5]: 2.69 µM
Compound: NS(=O)(=O)OCC1CC(n2ccc3c(NC4CCc5ccccc54)ncnc32)CC1O (configuration not stated) + Cc1ccccc1N=Nc1ccc(NC(=O)c2ccnn2C)c(C)c1
- viability, T/C [6]: 143%
- viability, T/C [7]: 184%
- viability, T/C [8]: 253%
- viability, T/C [9]: 137%
- viability, T/C [10]: 37.4%
- viability, T/C [11]: 18.3%
- viability, T/C [12]: 131%
- viability, T/C [13]: 173%
- viability, T/C [14]: 240%
- viability, T/C [15]: 119%
- viability, T/C [16]: 30.9%
- viability, T/C [17]: 20.6%
- viability, T/C [18]: 127%
- viability, T/C [19]: 156%
- viability, T/C [20]: 256%
- viability, T/C [21]: 125%
- viability, T/C [22]: 39.3%
- viability, T/C [23]: 20.9%
- viability, T/C [24]: 121%
- viability, T/C [25]: 146%
- viability, T/C [26]: 233%
- viability, T/C [27]: 128%
- viability, T/C [28]: 37.4%
- viability, T/C [29]: 18.5%
- viability, T/C [30]: 118%
- viability, T/C [31]: 179%
- viability, T/C [32]: 210%
- viability, T/C [33]: 125%
- viability, T/C [34]: 43.6%
- viability, T/C [35]: 17.4%

- IC50 [1]: > 10 µM
- IC50 [2]: > 10 µM
- IC50 [3]: > 10 µM
- IC50 [4]: > 10 µM
- IC50 [5]: > 10 µM
Compound: COc1cc(C2c3cc4c(cc3C(OC3OC5COC(C)OC5C(O)C3O)C3COC(=O)C23)OCO4)cc(OC)c1O (configuration not stated) + CC(CO)NC(=O)c1cc(-c2ccc(Cl)cc2)nn(-c2cnn(C)c2)c1=O
- viability, T/C [6]: 75.2%
- viability, T/C [7]: 90.2%
- viability, T/C [8]: 108%
- viability, T/C [9]: 66.3%
- viability, T/C [10]: 84.1%
- viability, T/C [11]: 60.1%
- viability, T/C [12]: 63.8%
- viability, T/C [13]: 84.5%
- viability, T/C [14]: 85.3%
- viability, T/C [15]: 67.7%
- viability, T/C [16]: 101%
- viability, T/C [17]: 69.4%
- viability, T/C [18]: 60.3%
- viability, T/C [19]: 76.7%
- viability, T/C [20]: 90%
- viability, T/C [21]: 83.5%
- viability, T/C [22]: 84.3%
- viability, T/C [23]: 53.3%
- viability, T/C [24]: 81.1%
- viability, T/C [25]: 85.8%
- viability, T/C [26]: 74.3%
- viability, T/C [27]: 69.3%
- viability, T/C [28]: 65%
- viability, T/C [29]: 102%
- viability, T/C [30]: 91.7%
- viability, T/C [31]: 70.8%
- viability, T/C [32]: 89.6%
- viability, T/C [33]: 81.3%
- viability, T/C [34]: 53.5%
- viability, T/C [35]: 77.3%
